Experiments:
MHV-A59 [1] = assay: In vitro anti-MHV-A59 activity assay in L929 cells; assay type: cell-based, murine coronavirus mouse hepatitis virus A-59; conditions: for potency relative to GS-441524 (MHV-A59 EC50), fold more potent: vs GS-441524 EC50 = 10.01 μM; for effect on cellular replication of MHV-A59 (in words): up to 200 μM
Aqueous solubility = assay type: physicochemical
MHV-A59 [2] = assay: Mouse MHV efficacy study; assay type: in vivo, BALB/c mice; conditions: for viral titers (MHV-A59 RNA copies) in the liver (in words): mouse, in vivo
FCoV = conditions: intraperitoneal injection, FCoV-afflicted cats; cited from earlier work
[3] = ATV041 10, 50, 200 mg/kg oral QD, 3 dpi

With `CC(C(=O)OC[C@H]1O[C@@](C#N)(c2ccc3c(N)ncnn23)[C@H](O)[C@@H]1O)c1cccc(Oc2ccccc2)c1` (stereo partly drawn) [ATV038, ((2R,3S,4R,5R)-5-(4-aminopyrrolo[2,1-f][1,2,4]triazin-7-yl)-5-cyano-3,4-dihydroxytetrahydrofuran-2-yl)methyl 2-(3-phenoxyphenyl)propanoate] the “potency relative to GS-441524 (MHV-A59 EC50), fold more potent” value (MHV-A59 [1]) was “about 8 fold” and the “aqueous solubility (in words)” value (Aqueous solubility) was “slightly better solubility”.

For `COc1ccc2cc([C@H](C)C(=O)OC[C@H]3O[C@@](C#N)(c4ccc5c(N)ncnn45)[C@H](O)[C@@H]3O)ccc2c1` [ATV039, ((2R,3S,4R,5R)-5-(4-aminopyrrolo[2,1-f][1,2,4]triazin-7-yl)-5-cyano-3,4-dihydroxytetrahydrofuran-2-yl)methyl (S)-2-(6-methoxynaphthalen-2-yl)propanoate], the “aqueous solubility (in words)” value (Aqueous solubility) was “slightly better solubility”.

In the case of `CC(C(=O)OC[C@H]1O[C@@](C#N)(c2ccc3c(N)ncnn23)[C@H](O)[C@@H]1O)c1cccc(C(=O)c2ccccc2)c1` (stereo partly drawn) [ATV040, ((2R,3S,4R,5R)-5-(4-aminopyrrolo[2,1-f][1,2,4]triazin-7-yl)-5-cyano-3,4-dihydroxytetrahydrofuran-2-yl)methyl 2-(3-benzoylphenyl)propanoate], the “aqueous solubility (in words)” value (Aqueous solubility) is reported as “significantly improved the solubility”.

For `CC(C)Cc1ccc(C(C)C(=O)OC[C@H]2O[C@@](C#N)(c3ccc4c(N)ncnn34)[C@H](O)[C@@H]2O)cc1` (stereo partly drawn) [ATV041, ((2R,3S,4R,5R)-5-(4-aminopyrrolo[2,1-f][1,2,4]triazin-7-yl)-5-cyano-3,4-dihydroxytetrahydrofuran-2-yl)methyl 2-(4-isobutylphenyl)propanoate], the “potency relative to GS-441524 (MHV-A59 EC50), fold more potent” value (MHV-A59 [1]) was “about 8 fold”, the survival rate (MHV-A59 [2]; 10 mg/kg oral QD, 23-day observation) was 100% and the “pro-inflammatory factors in the lungs (in words)” value (MHV-A59 [2]; 200 mg/kg oral QD, 3 dpi) was “considerably reduced to a level similar to the mock-infected mice”. The “liver histopathology (H&E) (in words)” value (MHV-A59 [2]; 3 dpi) was “obvious remission effects”, the “lung histopathology (H&E) (in words)” value (MHV-A59 [2]; 3 dpi) was “alleviated symptoms” and the “dose dependence of inhibition of viral replication in the liver (in words)” value (MHV-A59 [2]; [3]) was “dose-dependently inhibited”. For the same compound, the “dose dependence of inhibition of viral replication in the lungs (in words)” value (MHV-A59 [2]; [3]) was “dose-dependent inhibition”, the “viral titers (MHV-A59 RNA copies) in the liver (in words)” value (MHV-A59 [2]) was “below the detection limit” and the “plasma ALT and AST (in words)” value (MHV-A59 [2]; serum chemical analysis, 3 dpi) was “significantly reduced”. The “aqueous solubility (in words)” value (Aqueous solubility) was “slightly better solubility”.

With `N#C[C@@]1(c2ccc3c(N)ncnn23)O[C@H](COC(=O)Cc2ccccc2Nc2c(Cl)cccc2Cl)[C@@H](O)[C@H]1O` [ATV042, ((2R,3S,4R,5R)-5-(4-aminopyrrolo[2,1-f][1,2,4]triazin-7-yl)-5-cyano-3,4-dihydroxytetrahydrofuran-2-yl)methyl 2-(2-((2,6-dichlorophenyl)amino)phenyl)acetate] the “aqueous solubility (in words)” value (Aqueous solubility) was “hardly soluble”.

In the case of `COc1ccc2c(c1)c(CC(=O)OC[C@H]1O[C@@](C#N)(c3ccc4c(N)ncnn34)[C@H](O)[C@@H]1O)c(C)n2C(=O)c1ccc(Cl)cc1` [ATV043, ((2R,3S,4R,5R)-5-(4-aminopyrrolo[2,1-f][1,2,4]triazin-7-yl)-5-cyano-3,4-dihydroxytetrahydrofuran-2-yl)methyl 2-(1-(4-chlorobenzoyl)-5-methoxy-2-methyl-1H-indol-3-yl)acetate], the “aqueous solubility (in words)” value (Aqueous solubility) is reported as “hardly soluble”.

For `N#C[C@@]1(c2ccc3c(N)ncnn23)O[C@H](CO)[C@@H](O)[C@H]1O` [GS-441524, 1′-CN-4-aza-7,9-dideazaadenosine C-nucleoside, reference compound], the cure rate (FCoV) is listed as “up to 96%”, the “viral titer / viral replication in the lungs (in words)” value (MHV-A59 [2]; 100 mg/kg GS-441524 (B1) or 200 mg/kg ATV041 (C3), same molar concentration, oral QD, 3 dpi) is listed as “about one order of magnitude” and the “lung histopathology (H&E) (in words)” value (MHV-A59 [2]; 3 dpi) is listed as “did not demonstrate protect effects”. The “viral titers (MHV-A59 RNA copies) in the liver (in words)” value (MHV-A59 [2]) was “below the detection limit”.

For `CC(C)Cc1ccc(C(C)C(=O)O)cc1` (centres unmarked) [Ibuprofen, reference compound], the “effect on cellular replication of MHV-A59 (in words)” value (MHV-A59 [1]; Fig. S1) was “did not affect”, the “effect on cellular replication of MHV-A59 (in words)” value (MHV-A59 [1]; Fig. S1, listed as ibuprofen) was “did not inhibit” and the “antiviral effect in lung and liver (in words)” value (MHV-A59 [2]; ibuprofen 70 mg/kg oral QD dosed alone, 3 dpi) was “did not show an antiviral effect”.
